Measurements from patent US20260297109A1, “COMPOUNDS AS SUMO ACTIVATING ENZYME INHIBITORS” (WIGEN BIOMEDICINE TECHNOLOGY (SHANGHAI) CO., LTD., priority 2022, published 2026).
pIC50: −log10 of the molar value.

These compounds were tested against T1, SAE (Homo sapiens, UniProt Q9UBT2) (assay: SUMO IF: in vitro inhibitory activity assay against SAE in HCT116 cells (SUMO-2/3 immunofluorescence)). Details: class symbols, 6 h at 37° C.
T1 construct: endogenous in cells; host or cells: HCT116
T1 sequence (Q9UBT2 1-640): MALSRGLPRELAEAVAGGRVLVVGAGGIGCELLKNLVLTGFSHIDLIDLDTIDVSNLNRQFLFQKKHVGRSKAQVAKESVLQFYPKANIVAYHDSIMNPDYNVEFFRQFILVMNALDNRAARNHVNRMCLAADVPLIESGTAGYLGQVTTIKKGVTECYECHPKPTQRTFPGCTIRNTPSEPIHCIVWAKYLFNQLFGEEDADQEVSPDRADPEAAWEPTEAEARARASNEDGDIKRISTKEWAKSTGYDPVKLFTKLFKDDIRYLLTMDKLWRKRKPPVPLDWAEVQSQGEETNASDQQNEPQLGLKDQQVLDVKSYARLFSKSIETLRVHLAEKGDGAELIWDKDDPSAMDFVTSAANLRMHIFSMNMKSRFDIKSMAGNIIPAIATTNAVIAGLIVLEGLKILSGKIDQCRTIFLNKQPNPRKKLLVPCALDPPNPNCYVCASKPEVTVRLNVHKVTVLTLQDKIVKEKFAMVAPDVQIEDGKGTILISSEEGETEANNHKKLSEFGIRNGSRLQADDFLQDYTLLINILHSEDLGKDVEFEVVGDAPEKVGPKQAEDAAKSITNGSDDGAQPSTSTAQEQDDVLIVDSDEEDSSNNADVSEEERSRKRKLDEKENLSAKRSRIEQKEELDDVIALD
T1 sequence (Q9UBE0 1-346): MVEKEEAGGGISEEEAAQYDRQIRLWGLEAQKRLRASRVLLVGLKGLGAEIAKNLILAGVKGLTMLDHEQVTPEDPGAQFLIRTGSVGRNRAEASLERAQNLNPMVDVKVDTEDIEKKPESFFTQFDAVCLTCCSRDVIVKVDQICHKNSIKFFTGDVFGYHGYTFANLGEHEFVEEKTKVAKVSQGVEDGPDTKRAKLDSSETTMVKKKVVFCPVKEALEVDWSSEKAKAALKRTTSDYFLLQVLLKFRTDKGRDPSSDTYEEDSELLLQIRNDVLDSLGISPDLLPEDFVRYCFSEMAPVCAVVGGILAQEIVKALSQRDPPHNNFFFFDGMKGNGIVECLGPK
Assay type: cell-based
Experimental: Biological Example 1. In Vitro Inhibitory Activity Assay of Compounds of the Present Disclosure Against SAE
HCT116 cells were seeded into a 96-well black transparent bottom plate at about 20000/well with 90 μL per well. The cells were incubated at 37° C. overnight for 24 h. The test compounds were 10-fold diluted to give a final concentration, and 10 μL of the diluted compounds was added to each well of the cell culture plate. The mixture was incubated at 37° C. for 6 h. The cells were then washed gently, the culture medium was discarded, and the cells were washed once with 200 μL of 0.1% PBST. 50 μL of 4% PFA was added to each well, and the cells were immobilized at room temperature for 20 min, and then washed with PBS 2-3 times. 50 μL of 0.2% Triton X-100 was added to each well, and the cells were left to stand at room temperature for 15 min and washed with 0.1% PBST 3 times. 100 μL of 3% BSA (0.6 g BSA+20 mL PBS) was added to each well, and the mixture was blocked at 37° C. for 30 min. After the blocking was completed, the liquid was removed and a primary antibody (SUMO-2/3 (18H8) Rabbit mAb, 1:400 dilution) was prepared with 1% BSA. 30 μL of the diluted primary antibody was added to each well, and the mixture was incubated at 4° C. overnight. The cells were washed 3 times with 200 μL of 0.1% PBST. A FITC secondary antibody (Fluorescein (FITC)-conjugated Affinipure Goat Anti-Rabbit IgG (H+L), 1:300 dilution) was further prepared with 1% BSA, and 40 μL of the diluted secondary antibody was added to each well. The mixture was incubated at room temperature in the dark for 2 h, and then the cells were washed 4 times with 0.1% PBST. The fluorescence signal of the sample was detected and compared to the DMSO group, and the inhibition rate and IC50 were calculated.

`N#Cc1ccc2c(c1)[C@]1(CCc3sc(C(=O)c4cncnc4N[C@H]4C[C@H](O)[C@@H](COS(N)(=O)=O)[C@@H]4F)cc31)OCC2` [Compound 751] and `NS(=O)(=O)OC[C@H]1[C@H](F)[C@@H](Nc2ncncc2C(=O)c2cc3c(s2)CC[C@@]32OCCc3ccc(Cl)cc32)C[C@@H]1O` [Compound 706] cannot be ordered by pIC50: < 6.70 for the first, < 6.70 for the second.

Compared with `CC1CNC2(C=Cc3sc(C(=O)c4cncnc4N[C@H]4C[C@H](O)[C@@H](COS(N)(=O)=O)[C@@H]4F)cc32)c2cc(Cl)ccc21` (stereo partly shown) [Compound 1053], `CC1CN[C@@]2(C=Cc3sc(C(=O)c4cncnc4N[C@H]4C[C@H](O)[C@@H](COS(N)(=O)=O)[C@@H]4F)cc32)c2cc(Cl)ccc21` (stereo partly shown) [Compound 1054] is lower in pIC50: 6.70 to 7.30 for the first, < 6.70 for the second. The first is the more potent here.

`CC1(C)CN[C@@]2(C=Cc3sc(C(=O)c4cncnc4N[C@H]4C[C@H](O)[C@@H](COS(N)(=O)=O)[C@@H]4F)cc32)c2cc(Cl)ccc21` [Compound 1060] and `NS(=O)(=O)OC[C@H]1[C@H](F)[C@@H](Nc2ncncc2C(=O)c2cc3c(s2)C(F)=C[C@@]32NCCc3ccc(Cl)cc32)C[C@@H]1O` [Compound 322] cannot be ordered by pIC50: < 6.70 for the first, < 6.70 for the second.

First: NS(=O)(=O)OC[C@H]1[C@H](F)[C@@H](Nc2ncncc2C(=O)c2cc3c(s2)CCC[C@@]32OCCc3ccc(F)cc32)C[C@@H]1O [Compound 712]
Second: CN1Cc2sc(C(=O)c3cncnc3N[C@H]3C[C@H](O)[C@@H](COS(N)(=O)=O)[C@@H]3F)cc2[C@]2(C1)OCCc1ccc(F)cc12 [Compound 722]
The pIC50 of the first is lower: < 6.70 for the first, ≥ 7.30 for the second. The second is the more potent here.

`NS(=O)(=O)OC[C@H]1[C@H](F)[C@@H](Nc2ncncc2C(=O)c2cc3c(s2)COC32NCCc3ccc(Cl)cc32)C[C@@H]1O` (stereo partly shown) [Compound 164] and `Cc1ccc2c(c1)C1(CCc3sc(C(=O)c4cncnc4N[C@H]4C[C@H](O)[C@@H](COS(N)(=O)=O)[C@@H]4F)cc31)NCC2` (stereo partly shown) [Compound 148] fall in the same range of pIC50: 6.70 to 7.30 for the first, 6.70 to 7.30 for the second.

`N#Cc1cc2c(cc1Cl)[C@@]1(CCCc3sc(C(=O)c4cncnc4N[C@H]4C[C@H](O)[C@@H](COS(N)(=O)=O)[C@@H]4F)cc31)NCC2` [Compound 674] and `N#Cc1cc2c(cc1Cl)C1(CCc3sc(C(=O)c4cncnc4N[C@H]4C[C@H](O)[C@@H](COS(N)(=O)=O)[C@@H]4F)cc31)NCC2` (stereo partly shown) [Compound 156] cannot be ordered by pIC50: ≥ 7.30 for the first, 6.70 to 7.30 for the second.

First: NS(=O)(=O)OC[C@H]1[C@H](F)[C@@H](Nc2ncncc2C(=O)c2cc3c(s2)CCC32NCC(=O)c3ccc(Cl)cc32)C[C@@H]1O (stereo partly shown) [Compound 167]
Second: NS(=O)(=O)OC[C@H]1[C@H](F)[C@@H](Nc2ncncc2C(=O)c2cc3c(s2)CCCC32NC(=O)Cc3ccc(Cl)cc32)C[C@@H]1O (stereo partly shown) [Compound 627]
The pIC50 of the first is higher: 6.70 to 7.30 for the first, < 6.70 for the second.

First: NS(=O)(=O)OC[C@H]1[C@H](F)[C@@H](Nc2ncncc2C(=O)c2nc3c(s2)COCC32NCCc3ccc(Cl)cc32)C[C@@H]1O (stereo partly shown) [Compound 588]
Second: NS(=O)(=O)OC[C@H]1[C@H](F)[C@@H](Nc2ncncc2C(=O)c2cc3c(s2)COC[C@]32NCCc3cc(Cl)c(Cl)cc32)C[C@@H]1O [Compound 563]
The pIC50 of the first is lower: < 6.70 for the first, 6.70 to 7.30 for the second.

`Cc1sc(C(=O)c2cncnc2N[C@H]2C[C@H](O)[C@@H](COS(N)(=O)=O)[C@@H]2F)cc1[C@@H]1NCCc2ccc(C#N)cc21` [Compound 239] and `Cc1sc(C(=O)c2cncnc2N[C@H]2C[C@H](O)[C@@H](COS(N)(=O)=O)[C@@H]2F)cc1C1NCCc2cc(F)c(F)cc21` (stereo partly shown) [Compound 245] fall in the same range of pIC50: 6.70 to 7.30 for the first, 6.70 to 7.30 for the second.

`NS(=O)(=O)OC[C@H]1[C@H](F)[C@@H](Nc2ncncc2C(=O)c2cc([C@H]3NCCc4ccc(Cl)cc43)c(C3CC3)s2)C[C@@H]1O` [Compound 986] and `Cc1sc(C(=O)c2cncnc2N[C@H]2C[C@H](O)[C@@H](COS(N)(=O)=O)[C@@H]2F)cc1C1OCc2ccc(Cl)cc21` (stereo partly shown) [Compound 256] cannot be ordered by pIC50: < 6.70 for the first, < 6.70 for the second.

Same assay, conditions: numeric values, 6 h at 37° C.

`NS(=O)(=O)OC[C@H]1[C@H](F)[C@@H](Nc2ncncc2C(=O)c2cc3c(s2)CCC[C@@]32NCCc3ccc(F)cc32)C[C@@H]1O` [Compound 92] and `Cc1sc(C(=O)c2cncnc2N[C@H]2C[C@H](O)[C@@H](COS(N)(=O)=O)[C@@H]2F)cc1[C@H]1NCCc2ccc(Cl)cc21` [Compound 234] cannot be ordered by pIC50: < 6.00 for the first, < 6.00 for the second.
